# System: skin of fuzzy rats
# Assay: Topical skin irritation test
# Assay type: in vivo, female fuzzy rats (Hsd:FUZZY-fz)
# Conditions: 0.1% retinol alone, topical in acetone, daily Day 1-14; group average of erythema/eschar grade 0-4 (Table 2)
# Excerpt: The topical retinoid all-trans-retinoic acid (ATRA) and oral retinoids such as 13-cis RA and etretinate are known to induce substantial skin irritation in humans. This irritation is a direct result of activation of the RAR nuclear receptors. Analysis of retinoid topical irritation is also a highly reproducable method of determining in vivo retinoid potency. The female fuzzy rats provide a convenient animal model of topical irritation, since retinoid-induced skin flaking and abrasion can be readily scored by eye, while their larger size than those of mice also allows multiple sampling of serum for clinical analyses. Topical application of P450RAI inhibitors should cause an increase in the endogenous levels of ATRA that would result in ATRA-induced irritation in skin of hairless mice. In these tests female fuzzy rats ((Hsd:FUZZY-fz), 6-7 weeks old, were obtained from Harlan Sprague-Dawley (Indianapolis, Ind.). The animals were about 8-9 weeks old at the start of the experiments. Food (Purina Rodent Chow 5001) and water purified by reverse osmosis were provided ad libitum. The rats were housed individually throughout the dosing period. Test chemicals were dissolved in acetone (vehicle) for application to the backs of the rats. Two days prior to actual administration of the test compounds, rats were handled daily and dosed with vehicle at a volume of 0.5 ml/kg. Starting on Day 1 thought Day 14 (dosing period), animals were dosed with the vehicle or compound(s) according to their group assignment. The rats in the tests were observed daily and the dorsal skin was graded for the degree of erythema/eschar and overall appearance. The scoring was in accordance with Table 2, below. [table] Daily group average was calculated by dividing the sum of the individual grade by the number of animals in each treatment group. The attached data in Table 3 indicates the retinoid-mimetic effects of some P450RAI inhibitors on the skin of fuzzy rats in the above described tests and in accordance with the above-indicated scoring.
smiles,measurement,value
"CC1=C(/C=C/C(C)=C/C=C/C(C)=C/CO)C(C)(C)CCC1 [retinol, reference compound]",Irritation Score on day 14,1

# — patent US7351737B2, “4-[(8-substituted)-6-chromanoyl]-and 4-[8-substituted)-chroman-6-YL-ethynyl]-benzoic and phenylacetic acids, their esters and salts having cytochrome P450RAI inhibitory activity” (Allergan, Inc., priority 2002, dated 2008)
